Results taken from publication PMC8445441, “Elucidating the mechanism by which synthetic helper peptides sensitize Pseudomonas aeruginosa to multiple antibiotics” (PLoS Pathogens, 2021).
Values joined by “and” are separate entries in the source; they are usually repeats but may differ in a detail not shown here. Equal entries are not always repeated.

Experiments:
P. aeruginosa AUMC-Pa-3 = assay: microbe, parasite or virus in culture; details: for MICac: MIC of the antibiotic in the combination: with D-11 at MICbc 4, unit not given
Summary of the method: (§1)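 Broth microdilution per CLSI in MHB: two-fold drug dilutions mixed with an equal volume of bacterial suspension at approximately 1 × 10^6 CFU/mL, incubated 18 h at 37 °C. MIC was the lowest concentration with no visible growth; triplicate runs.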

P. aeruginosa AUMC-Pa-4 = assay: microbe, parasite or virus in culture; details: for MICac: MIC of the antibiotic in the combination: strain AUMC-Pa-4, with D-11 at MICbc 4, unit not given
Summary of the method: as §1

P. aeruginosa AUMC-Pa-5 = assay: microbe, parasite or virus in culture; details: strain AUMC-Pa-5; for FICI: antibiotic + D-11 (MICb/MICbc 64/4); for MICac: MIC of the antibiotic in the combination: with D-11 at MICbc 4
Summary of the method: as §1

P. aeruginosa AUMC-Pa-6 = assay: microbe, parasite or virus in culture; details: for FICI / MICac: MIC of the antibiotic in the combination: strain AUMC-Pa-6; for FICI: antibiotic + D-11 (MICb/MICbc 64/4); for MICac: MIC of the antibiotic in the combination: with D-11 at MICbc 4, unit not given
Summary of the method: as §1

P. aeruginosa ATCC27853 = assay: microbe, parasite or virus in culture; set-up: MICa: MIC of the antibiotic / MICac: MIC of the antibiotic in the combination: unit not given beside the values; details: for FICI / MICac: MIC of the antibiotic in the combination: strain ATCC27853; for FICI: antibiotic + D-11 (MICb/MICbc 32/4); for MICac: MIC of the antibiotic in the combination: with D-11 at MICbc 4, unit not given
Procedure: (§2) The MIC tests were performed in triplicate using broth microdilution in accordance with Clinical and Laboratory Standards Institute (CLSI) recommendations (http://iacld.ir/DL/public/CLSI-2018-M100-S28.pdf). Briefly, drugs were two-fold diluted in MHB and mixed with an equal volume of bacterial suspensions containing approximately 1 × 10^6 CFU/mL in 96-well microliter plate. After 18 h incubation at 37 °C, the MIC values were defined as the lowest concentrations of antibiotics with no visible growth of bacteria. […] Otherwise, 1/4 MIC of the peptide was used in the combination. […] If needed, membrane compounds PG, PE, PC, CL or LPS, or membrane stabilizers MgCl2 or CaCl2, or efflux pumps inhibitor PAβN were added to the broth medium to clarify the effect of other substances on the synergy between peptide and antibiotics. All the tests were performed in triplicate.
(§3) The fractional inhibitory concentration (FIC) indices were calculated using the previously described formula FICI = FICa + FICb = MICac/MICa + MICbc/MICb. The FICI was interpreted according to EUCAST [65] as follows: synergistic, FICI≤0.5; additive, 0.5<FICI≤1; indifferent, 1<FICI<2; antagonistic, FICI ≥2. For the FICI calculations, twice the highest concentration tested was used in the cases where the MIC was not reached.

P. aeruginosa NR-31040 = assay: microbe, parasite or virus in culture; set-up: MICa: MIC of the antibiotic / MICac: MIC of the antibiotic in the combination: unit not given beside the values; details: strain NR-31040, unit not given; for MICac: MIC of the antibiotic in the combination: with D-11 at MICbc 4
Procedure: as §2, §3

P. aeruginosa NR-31041 = assay: microbe, parasite or virus in culture; set-up: MICa: MIC of the antibiotic / MICac: MIC of the antibiotic in the combination: unit not given beside the values; details: for FICI / MICac: MIC of the antibiotic in the combination: strain NR-31041; for FICI: antibiotic + D-11 (MICb/MICbc 64/4); for MICac: MIC of the antibiotic in the combination: with D-11 at MICbc 4, unit not given
Procedure: as §2, §3

P. aeruginosa PA14 = assay: microbe, parasite or virus in culture; set-up: MICa: MIC of the antibiotic / MICac: MIC of the antibiotic in the combination: unit not given beside the values; details: for MICac: MIC of the antibiotic in the combination: strain PA14, with D-11 at MICbc 4, unit not given
Procedure: as §2, §3

P. aeruginosa PAK = assay: microbe, parasite or virus in culture; set-up: MICa: MIC of the antibiotic / MICac: MIC of the antibiotic in the combination: unit not given beside the values; details: for FICI / MICac: MIC of the antibiotic in the combination: strain PAK; for FICI: antibiotic + D-11 (MICb/MICbc 64/4); for MICac: MIC of the antibiotic in the combination: with D-11 at MICbc 4, unit not given
Procedure: as §2, §3

P. aeruginosa AUMC-Pa-2 = details: strain AUMC-Pa-2; antibiotic + D-11 (MICb/MICbc 64/4)
Procedure: as §2, §3

P. aeruginosa PAO1 = assay: microbe, parasite or virus in culture; details: PAO1
Summary of the method: as §1

P. aeruginosa HM-214 = details: strain HM-214; antibiotic + D-11 (MICb/MICbc 128/4)
Procedure: as §2, §3

P. aeruginosa AUMC-Pa-1 = details: strain AUMC-Pa-1; antibiotic + D-11 (MICb/MICbc 128/4)
Procedure: as §2, §3

[1] = test system: clinical P. aeruginosa isolates; assay: microbe, parasite or virus in culture; details: antibiotic alone
Summary of the method: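 Broth microdilution per CLSI in MHB, two-fold drug dilutions mixed with an equal volume of bacteria at about 1 × 10^6 CFU/mL. After 18 h at 37 °C, MIC taken as the lowest concentration with no visible growth; run in triplicate.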

[2] = S3 Table, antibiotic + 4 μM D-11

| Molecule | MICac: MIC of the antibiotic in the combination (P. aeruginosa AUMC-Pa-3; strain AUMC-Pa-3) | MICac: MIC of the antibiotic in the combination (P. aeruginosa AUMC-Pa-4) | FICI (P. aeruginosa AUMC-Pa-5) | MICac: MIC of the antibiotic in the combination (P. aeruginosa AUMC-Pa-5; unit not given) | FICI (P. aeruginosa AUMC-Pa-6) | MICac: MIC of the antibiotic in the combination (P. aeruginosa AUMC-Pa-6) | FICI (P. aeruginosa ATCC27853) | MICac: MIC of the antibiotic in the combination (P. aeruginosa ATCC27853) | MICac: MIC of the antibiotic in the combination (P. aeruginosa NR-31040) | FICI (P. aeruginosa NR-31041) | MICac: MIC of the antibiotic in the combination (P. aeruginosa NR-31041) | MICac: MIC of the antibiotic in the combination (P. aeruginosa PA14) | FICI (P. aeruginosa PAK) | MICac: MIC of the antibiotic in the combination (P. aeruginosa PAK) | FICI (P. aeruginosa AUMC-Pa-2) | FICI (P. aeruginosa PAO1; [2]) | MICac: the MIC for the antibiotic in the combination (P. aeruginosa PAO1; S3 Table, with 2 μM D-11) | MICac: the MIC for the antibiotic in the combination (P. aeruginosa PAO1; S3 Table, with 4 μM D-11) | also measured |
| --- | --- | --- | --- | --- | --- | --- | --- | --- | --- | --- | --- | --- | --- | --- | --- | --- | --- | --- | --- |
| CC[C@H]1OC(=O)[C@H](C)[C@@H](O[C@H]2C[C@@](C)(OC)[C@@H](O)[C@H](C)O2)[C@H](C)[C@@H](O[C@@H]2O[C@H](C)C[C@H](N(C)C)[C@H]2O)[C@](C)(O)C[C@@H](C)C(=O)[C@H](C)[C@@H](O)[C@]1(C)O [Erythromycin] | 8 | 32 | 0.313 | 32 | 0.313 | 32 | 0.188 | 8 | 32 | 0.188 | 16 | 32 | 0.188 | 16 | 0.313 |  |  |  |  |
| CC1COc2c(N3CCN(C)CC3)c(F)cc3c(=O)c(C(=O)O)cn1c23 (stereo not drawn) [Ofloxacin] | 0.25 | 0.25 | 2.063 | 2 | 1.063 | 0.5/0.5 | 0.250 | 0.25 | 1 | 0.313 | 0.5 | 0.5 | 0.313 | 0.5 | 0.563 | 0.156 | 0.125 µM | 0.03125 µM | MIC (P. aeruginosa AUMC-Pa-3; Pseudomonas aeruginosa, AUMCPA3, 18 h, read-out: MICa: MIC of the antibiotic): 1 µM; FICI (P. aeruginosa AUMC-Pa-3; strain AUMC-Pa-3, antibiotic + D-11 (MICb/MICbc 128/4)): 0.281; MIC (P. aeruginosa AUMC-Pa-4; Pseudomonas aeruginosa, AUMCPA4, 18 h, read-out: MICa: MIC of the antibiotic): 1 µM; MICa: MIC of the antibiotic (P. aeruginosa AUMC-Pa-5; antibiotic alone, unit not given): 1; MIC (P. aeruginosa AUMC-Pa-6; Pseudomonas aeruginosa, AUMCPA6, 18 h, read-out: MICa: MIC of the antibiotic): 0.5 µM; MIC (P. aeruginosa PAO1; Pseudomonas aeruginosa, PAO1, 18 h, read-out: MICa: the MIC of antibiotics, S3 Table, antibiotic alone): 1 µM; FICI (P. aeruginosa PAO1; S3 Table, antibiotic + 2 μM D-11): 0.188; MIC (P. aeruginosa ATCC27853; Pseudomonas aeruginosa, ATCC27853, 18 h, read-out: MICa: MIC of the antibiotic): 2 µM; MICa: MIC of the antibiotic (P. aeruginosa NR-31040; antibiotic alone): 2; MIC (P. aeruginosa NR-31041; Pseudomonas aeruginosa, NR31041, 18 h, read-out: MICa: MIC of the antibiotic): 2 µM; MIC (P. aeruginosa PA14; Pseudomonas aeruginosa, PA14, 18 h, read-out: MICa: MIC of the antibiotic): 1 µM; MIC (P. aeruginosa PAK; Pseudomonas aeruginosa, 18 h, read-out: MICa: MIC of the antibiotic): 2 µM; FICI (P. aeruginosa HM-214): 1.031; FICI (P. aeruginosa AUMC-Pa-1): 0.094 |
| Neomycin |  |  |  |  |  |  |  |  |  |  |  |  |  |  |  | 2.125 | 2/2 μM | 4 µM | MICa: the MIC of antibiotics (P. aeruginosa PAO1; S3 Table, antibiotic alone): 2/2 μM and 2 μM; Antibiotic sensibility (MIC) of clinical P. aeruginosa isolate AUMC-Pa-1 ([1]; strain AUMC-Pa-1): 1 µM; Antibiotic sensibility (MIC) of clinical P. aeruginosa isolate AUMC-Pa-2 ([1]; strain AUMC-Pa-2): 0.5 µM; Antibiotic sensibility (MIC) of clinical P. aeruginosa isolate AUMC-Pa-3 ([1]; strain AUMC-Pa-3): 0.0625 µM; Antibiotic sensibility (MIC) of clinical P. aeruginosa isolate AUMC-Pa-4 ([1]; strain AUMC-Pa-4): 0.5 µM; Antibiotic sensibility (MIC) of clinical P. aeruginosa isolate AUMC-Pa-5 ([1]; strain AUMC-Pa-5): 0.5 µM; Antibiotic sensibility (MIC) of clinical P. aeruginosa isolate AUMC-Pa-6 ([1]; strain AUMC-Pa-6): 2 µM; Antibiotic sensibility (MIC) of clinical P. aeruginosa isolate HM-214 ([1]; strain HM-214): 2 µM; Antibiotic sensibility (MIC) of clinical P. aeruginosa isolate NR-31040 ([1]; strain NR-31040): 8 µM; Antibiotic sensibility (MIC) of clinical P. aeruginosa isolate NR-31041 ([1]; strain NR-31041): 4 µM |
